Reference: the NIST ThermoML archive (doi:10.1021/je049671t)

Assay: xn = mol fraction of the nth substance listed
Settings: Liquid, Vibrating tube method

CC(C)C [2-methylpropane] + CCC
Settings | mass density [kg/m3]
240 K, 398.2 kPa, x2 = 0.25 | 608.19
240 K, 475.1 kPa, x2 = 0.25 | 608.27
240 K, 529.1 kPa, x2 = 0.75 | 584.35
240 K, 1000.1 kPa, x2 = 0.25 | 608.87
240 K, 1024.1 kPa, x2 = 0.75 | 584.98
240 K, 1473.4 kPa, x2 = 0.75 | 585.53
240 K, 1505.9 kPa, x2 = 0.25 | 609.45
240 K, 2000.7 kPa, x2 = 0.75 | 586.19
240 K, 2004.5 kPa, x2 = 0.25 | 610.02
240 K, 2531.8 kPa, x2 = 0.75 | 586.84
240 K, 2533 kPa, x2 = 0.25 | 610.61
240 K, 3006.4 kPa, x2 = 0.75 | 587.4
240 K, 3028.4 kPa, x2 = 0.25 | 611.15
240 K, 3537.9 kPa, x2 = 0.25 | 611.73
240 K, 3545.4 kPa, x2 = 0.75 | 588.06
240 K, 4012.9 kPa, x2 = 0.75 | 588.63
240 K, 4027.7 kPa, x2 = 0.25 | 612.28
240 K, 4515.3 kPa, x2 = 0.75 | 589.21
240 K, 4519.1 kPa, x2 = 0.25 | 612.81
240 K, 4996.8 kPa, x2 = 0.75 | 589.79
240 K, 5030.4 kPa, x2 = 0.25 | 613.37
240 K, 5496.4 kPa, x2 = 0.75 | 590.37
240 K, 5533.4 kPa, x2 = 0.25 | 613.91
240 K, 6009 kPa, x2 = 0.75 | 590.98
240 K, 6033 kPa, x2 = 0.25 | 614.45
240 K, 6541 kPa, x2 = 0.75 | 591.59
240 K, 6541.5 kPa, x2 = 0.25 | 615
240 K, 6969.5 kPa, x2 = 0.75 | 592.1
240 K, 6987.7 kPa, x2 = 0.25 | 615.48
250 K, 515.5 kPa, x2 = 0.499 | 584.94
250 K, 1014.4 kPa, x2 = 0.499 | 585.61
250 K, 1511.1 kPa, x2 = 0.499 | 586.26
250 K, 2027.5 kPa, x2 = 0.499 | 586.95
250 K, 2489.8 kPa, x2 = 0.499 | 587.55
250 K, 3012.9 kPa, x2 = 0.499 | 588.23
250 K, 3492.5 kPa, x2 = 0.499 | 588.84
250 K, 3995.9 kPa, x2 = 0.499 | 589.47
250 K, 4532.5 kPa, x2 = 0.499 | 590.12
250 K, 5042.2 kPa, x2 = 0.499 | 590.74
250 K, 5484.6 kPa, x2 = 0.499 | 591.29
250 K, 5996.5 kPa, x2 = 0.499 | 591.9
250 K, 6509.5 kPa, x2 = 0.499 | 592.48
250 K, 6818.8 kPa, x2 = 0.499 | 592.84
260 K, 251.9 kPa, x2 = 0.75 | 560.57
260 K, 521.1 kPa, x2 = 0.25 | 586.55
260 K, 527 kPa, x2 = 0.75 | 561.44
260 K, 990.2 kPa, x2 = 0.25 | 587.2
260 K, 1026.1 kPa, x2 = 0.75 | 562.22
260 K, 1481.6 kPa, x2 = 0.25 | 587.88
260 K, 1524.1 kPa, x2 = 0.75 | 563.04
260 K, 2004.4 kPa, x2 = 0.25 | 588.63
260 K, 2030.6 kPa, x2 = 0.75 | 563.8
260 K, 2504.8 kPa, x2 = 0.25 | 589.32
260 K, 2508.8 kPa, x2 = 0.75 | 564.52
260 K, 2995 kPa, x2 = 0.25 | 589.98
260 K, 3035.5 kPa, x2 = 0.75 | 565.31
260 K, 3494.1 kPa, x2 = 0.75 | 566
260 K, 3517.2 kPa, x2 = 0.25 | 590.65
260 K, 3986.7 kPa, x2 = 0.25 | 591.2
260 K, 4039.9 kPa, x2 = 0.75 | 566.81
260 K, 4476.3 kPa, x2 = 0.25 | 591.87
260 K, 4527.2 kPa, x2 = 0.75 | 567.5
260 K, 4968.6 kPa, x2 = 0.75 | 568.07
260 K, 4976.3 kPa, x2 = 0.25 | 592.53
260 K, 5537.1 kPa, x2 = 0.75 | 568.72
260 K, 5550.8 kPa, x2 = 0.25 | 593.3
260 K, 6051.9 kPa, x2 = 0.25 | 593.96
260 K, 6474.3 kPa, x2 = 0.25 | 594.47
260 K, 6513.6 kPa, x2 = 0.75 | 570.1
260 K, 6922.9 kPa, x2 = 0.75 | 570.57
260 K, 7006.2 kPa, x2 = 0.25 | 595.15
280 K, 467.2 kPa, x2 = 0.499 | 549.36
280 K, 478.7 kPa, x2 = 0.75 | 535.35
280 K, 500.3 kPa, x2 = 0.25 | 562.94
280 K, 952.8 kPa, x2 = 0.499 | 550.3
280 K, 990.6 kPa, x2 = 0.75 | 536.42
280 K, 1004.7 kPa, x2 = 0.25 | 563.86
280 K, 1462.8 kPa, x2 = 0.25 | 564.67
280 K, 1514 kPa, x2 = 0.499 | 551.39
280 K, 1517.2 kPa, x2 = 0.75 | 537.51
280 K, 2007.8 kPa, x2 = 0.25 | 565.62
280 K, 2007.8 kPa, x2 = 0.499 | 552.34
280 K, 2029.6 kPa, x2 = 0.75 | 538.54
280 K, 2489.1 kPa, x2 = 0.499 | 553.22
280 K, 2510.3 kPa, x2 = 0.75 | 539.5
280 K, 2513.6 kPa, x2 = 0.25 | 566.51
280 K, 2999.1 kPa, x2 = 0.25 | 567.36
280 K, 3019.4 kPa, x2 = 0.75 | 540.5
280 K, 3022.9 kPa, x2 = 0.499 | 554.21
280 K, 3488.8 kPa, x2 = 0.25 | 568.19
280 K, 3519.6 kPa, x2 = 0.499 | 555.1
280 K, 3522.3 kPa, x2 = 0.75 | 541.47
280 K, 3992 kPa, x2 = 0.499 | 555.95
280 K, 3992.4 kPa, x2 = 0.25 | 569.03
280 K, 4026.3 kPa, x2 = 0.75 | 542.43
280 K, 4516.8 kPa, x2 = 0.25 | 569.91
280 K, 4518.6 kPa, x2 = 0.499 | 556.87
280 K, 4544.4 kPa, x2 = 0.75 | 543.38
280 K, 4965.2 kPa, x2 = 0.75 | 544.17
280 K, 4979.1 kPa, x2 = 0.25 | 570.66
280 K, 5014 kPa, x2 = 0.499 | 557.72
280 K, 5482.8 kPa, x2 = 0.499 | 558.54
280 K, 5485 kPa, x2 = 0.25 | 571.47
280 K, 5530.9 kPa, x2 = 0.75 | 545.19
280 K, 5989.4 kPa, x2 = 0.25 | 572.28
280 K, 6012.9 kPa, x2 = 0.75 | 546.05
280 K, 6027 kPa, x2 = 0.499 | 559.46
280 K, 6488.2 kPa, x2 = 0.75 | 546.89
280 K, 6525.9 kPa, x2 = 0.499 | 560.31
280 K, 6532.5 kPa, x2 = 0.25 | 573.13
280 K, 6931.1 kPa, x2 = 0.75 | 547.66
280 K, 6938.9 kPa, x2 = 0.499 | 560.98
280 K, 6965.6 kPa, x2 = 0.25 | 573.82
280 K, 6968.2 kPa, x2 = 0.25 | 573.78
300 K, 824.3 kPa, x2 = 0.75 | 507.35
300 K, 996.8 kPa, x2 = 0.499 | 523.82
300 K, 1001.6 kPa, x2 = 0.25 | 538.53
300 K, 1503.7 kPa, x2 = 0.25 | 539.71
300 K, 1519.6 kPa, x2 = 0.499 | 525.17
300 K, 1534 kPa, x2 = 0.75 | 509.38
300 K, 2006.6 kPa, x2 = 0.25 | 540.87
300 K, 2026.1 kPa, x2 = 0.499 | 526.45
300 K, 2028.3 kPa, x2 = 0.75 | 510.77
300 K, 2493.2 kPa, x2 = 0.75 | 512.04
300 K, 2510.6 kPa, x2 = 0.25 | 542.01
300 K, 2530.4 kPa, x2 = 0.499 | 527.7
300 K, 3014.6 kPa, x2 = 0.25 | 543.13
300 K, 3028.7 kPa, x2 = 0.75 | 513.47
300 K, 3043.4 kPa, x2 = 0.499 | 528.93
300 K, 3486.8 kPa, x2 = 0.499 | 529.95
300 K, 3488.8 kPa, x2 = 0.25 | 544.16
300 K, 3519.2 kPa, x2 = 0.75 | 514.75
300 K, 3995.5 kPa, x2 = 0.499 | 531.16
300 K, 3996.7 kPa, x2 = 0.75 | 515.97
300 K, 4012 kPa, x2 = 0.25 | 545.28
300 K, 4467.1 kPa, x2 = 0.75 | 517.17
300 K, 4483.4 kPa, x2 = 0.25 | 546.25
300 K, 4503.6 kPa, x2 = 0.499 | 532.34

mass density [kg/m3]
Settings | 240 K | 250 K | 260 K | 280 K
x2 = 0.25 | 607.81 | – | 585.98 | 562.49
x2 = 0.499 | – | 584.44 | – | 549.15
x2 = 0.75 | 583.82 | – | 560.96 | 535.32
